pIC50: −log10 of the molar value.
Assays:
RON (human) = RON (human) (Homo sapiens, UniProt Q04912); assay: RON (human) AlphaScreen kinase assay, Km of ATP; assay type: biochemical; conditions: AlphaScreen, Km of ATP; read-out: RON biochemical IC50
Outline: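 Reaction was started with enzyme and run 30 min at RT. PT66 donor/acceptor beads in an EDTA-containing Tris pH 7.5 buffer were then added, and the signal was read after 1 h.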

MET (human) = MET (human) (Homo sapiens, UniProt P08581); assay: MET (human) AlphaScreen kinase assay, Km of ATP; assay type: biochemical; conditions: AlphaScreen, Km of ATP; read-out: Met biochemical IC50
Outline: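 Human MET at lot-optimised concentration in 50 mM Tris pH 7.4 buffer with 1 mM DTT, compound at 1% DMSO final; enzyme starts the reaction, 60 min at RT.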

Sequence of MET (human) (P08581 25-1390): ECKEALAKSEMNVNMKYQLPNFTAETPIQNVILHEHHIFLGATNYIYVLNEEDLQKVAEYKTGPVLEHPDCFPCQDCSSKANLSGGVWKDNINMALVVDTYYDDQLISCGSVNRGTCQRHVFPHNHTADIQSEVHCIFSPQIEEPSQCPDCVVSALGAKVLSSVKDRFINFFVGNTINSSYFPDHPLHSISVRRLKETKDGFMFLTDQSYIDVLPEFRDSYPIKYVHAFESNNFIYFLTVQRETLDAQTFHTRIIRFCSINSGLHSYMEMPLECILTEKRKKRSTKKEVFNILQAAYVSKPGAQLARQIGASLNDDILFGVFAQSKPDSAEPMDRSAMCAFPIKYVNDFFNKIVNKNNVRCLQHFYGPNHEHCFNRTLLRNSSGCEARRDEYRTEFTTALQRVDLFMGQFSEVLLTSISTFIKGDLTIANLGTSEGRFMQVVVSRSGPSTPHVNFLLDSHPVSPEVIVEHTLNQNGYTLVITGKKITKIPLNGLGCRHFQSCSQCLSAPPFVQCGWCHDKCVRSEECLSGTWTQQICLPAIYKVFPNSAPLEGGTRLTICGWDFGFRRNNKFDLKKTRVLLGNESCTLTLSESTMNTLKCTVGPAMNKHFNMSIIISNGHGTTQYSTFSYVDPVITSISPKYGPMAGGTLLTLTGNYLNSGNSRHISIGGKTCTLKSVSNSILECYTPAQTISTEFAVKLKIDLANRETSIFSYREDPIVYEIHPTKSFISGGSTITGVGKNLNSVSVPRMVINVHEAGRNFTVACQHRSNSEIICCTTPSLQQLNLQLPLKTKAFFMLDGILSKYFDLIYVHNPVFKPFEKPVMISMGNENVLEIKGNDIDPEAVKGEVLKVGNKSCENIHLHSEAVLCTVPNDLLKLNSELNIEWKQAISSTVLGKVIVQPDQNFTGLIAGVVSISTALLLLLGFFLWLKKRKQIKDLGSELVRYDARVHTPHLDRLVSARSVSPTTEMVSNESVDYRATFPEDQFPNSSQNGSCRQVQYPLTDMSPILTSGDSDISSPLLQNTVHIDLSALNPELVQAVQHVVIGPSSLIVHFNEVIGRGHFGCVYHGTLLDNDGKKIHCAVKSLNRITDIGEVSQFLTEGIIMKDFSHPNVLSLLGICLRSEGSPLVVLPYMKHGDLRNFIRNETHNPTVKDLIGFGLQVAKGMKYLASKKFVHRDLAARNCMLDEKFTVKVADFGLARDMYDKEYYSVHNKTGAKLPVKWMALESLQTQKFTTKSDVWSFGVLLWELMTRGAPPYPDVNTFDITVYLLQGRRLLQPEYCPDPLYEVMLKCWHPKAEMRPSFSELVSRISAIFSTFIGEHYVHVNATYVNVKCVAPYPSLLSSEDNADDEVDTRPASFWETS
Sequence of RON (human) (Q04912 25-1400): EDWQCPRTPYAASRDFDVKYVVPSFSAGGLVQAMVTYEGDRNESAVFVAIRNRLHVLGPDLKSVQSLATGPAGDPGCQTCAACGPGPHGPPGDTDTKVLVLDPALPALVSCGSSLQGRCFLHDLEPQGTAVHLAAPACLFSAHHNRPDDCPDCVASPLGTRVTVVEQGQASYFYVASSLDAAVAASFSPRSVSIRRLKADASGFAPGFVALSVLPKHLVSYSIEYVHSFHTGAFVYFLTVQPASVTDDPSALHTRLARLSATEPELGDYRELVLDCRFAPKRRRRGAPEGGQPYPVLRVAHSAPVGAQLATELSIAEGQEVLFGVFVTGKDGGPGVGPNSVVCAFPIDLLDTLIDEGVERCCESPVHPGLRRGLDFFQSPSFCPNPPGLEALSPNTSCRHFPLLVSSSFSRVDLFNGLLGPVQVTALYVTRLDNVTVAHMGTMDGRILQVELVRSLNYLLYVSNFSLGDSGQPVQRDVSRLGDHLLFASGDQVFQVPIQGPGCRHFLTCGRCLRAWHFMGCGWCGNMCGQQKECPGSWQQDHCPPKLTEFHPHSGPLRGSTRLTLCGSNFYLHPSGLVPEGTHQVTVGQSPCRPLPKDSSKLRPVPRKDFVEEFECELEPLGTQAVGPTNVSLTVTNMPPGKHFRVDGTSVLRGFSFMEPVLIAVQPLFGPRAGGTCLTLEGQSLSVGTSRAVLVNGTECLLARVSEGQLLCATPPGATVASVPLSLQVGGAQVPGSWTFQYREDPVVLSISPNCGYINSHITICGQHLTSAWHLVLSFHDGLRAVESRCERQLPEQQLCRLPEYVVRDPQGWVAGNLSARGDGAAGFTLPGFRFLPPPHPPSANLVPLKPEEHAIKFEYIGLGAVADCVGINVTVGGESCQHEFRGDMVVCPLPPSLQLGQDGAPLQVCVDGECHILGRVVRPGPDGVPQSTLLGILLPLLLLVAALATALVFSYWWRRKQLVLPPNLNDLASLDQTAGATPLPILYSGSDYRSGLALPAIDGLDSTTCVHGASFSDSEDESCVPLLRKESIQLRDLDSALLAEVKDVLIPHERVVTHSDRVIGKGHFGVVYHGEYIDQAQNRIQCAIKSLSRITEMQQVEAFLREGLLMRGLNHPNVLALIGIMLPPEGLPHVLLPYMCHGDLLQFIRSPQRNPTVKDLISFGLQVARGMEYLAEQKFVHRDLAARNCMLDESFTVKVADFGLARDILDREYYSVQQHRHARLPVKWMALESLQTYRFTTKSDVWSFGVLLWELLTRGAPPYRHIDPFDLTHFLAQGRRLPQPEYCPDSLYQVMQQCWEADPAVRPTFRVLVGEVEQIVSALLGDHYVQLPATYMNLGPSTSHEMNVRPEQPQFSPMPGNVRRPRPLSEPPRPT

C[C@@H](Oc1c(N)ncc2c(-c3cc(C(=O)NC(C)(C)C)cs3)coc12)c1c(Cl)ccc(F)c1Cl [Example 331, 5-{6-Amino-7-[(R)-1-(2,6-dichloro-3-fluorophenyl)ethoxy]furo[3,2-c]pyridin-3-yl}thiophene-3-carboxylic acid tert-butylamide]
pIC50 (RON (human)): 4.70 to 5.30 | pIC50 (MET (human)): 5.30 to 6.30

C[C@@H](Oc1c(N)ncc2c(C3=CCN(C(=O)[C@@H](N)Cc4ccccc4)CC3)coc12)c1c(Cl)ccc(F)c1Cl [Example 256, (2S)-2-Amino-1-[4-{6-amino-7-[(1R)-1-(2,6-dichloro-3-fluoro-phenyl)ethoxy]furo[3,2-c]pyridin-3-yl}-3,6-dihydropyridin-1(2H)-yl]-3-phenylpropan-1-one]
pIC50 (RON (human)): 5.30 to 6.30 | pIC50 (MET (human)): > 6.30

CC(Oc1c(N)ncc2c(-c3cnn(C4CCNCC4)c3)coc12)c1ccccc1 (stereo not shown) [Example 386, 7-(1-Phenylethoxy)-3-(1-piperidin-4-yl-1H-pyrazol-4-yl)furo[3,2-c]pyridin-6-ylamine]
pIC50 (RON (human)): 5.30 to 6.30 | pIC50 (MET (human)): 5.30 to 6.30

CC(O)C(=O)N1CC=C(c2coc3c(O[C@H](C)c4c(Cl)ccc(F)c4Cl)c(N)ncc23)CC1 (stereo partly drawn) [Example 229, 1-(4-{6-Amino-7-[(R)-1-(2,6-dichloro-3-fluorophenyl)ethoxy]-furo[3,2-c]pyridin-3-yl}-3,6-dihydro-2H-pyridin-1-yl)-2-hydroxypropan-1-one]
pIC50 (RON (human)): > 6.30 | pIC50 (MET (human)): > 6.30

C[C@@H](Oc1c(N)ncc2c(C3=CCN(C4CCC4)CC3)coc12)c1c(Cl)ccc(F)c1Cl [Example 44, 3-(1-Cyclobutyl-1,2,3,6-tetrahydropyridin-4-yl)-7-[(R)-1-(2,6-dichloro-3-fluorophenyl)-ethoxy]-furo[3,2-c]pyridin-6-ylamine]
pIC50 (RON (human)): > 6.30 | pIC50 (MET (human)): > 6.30

C[C@@H](Oc1c(N)ncc2c(C3=CCN(C(=O)[C@@H]4CCCCN4)CC3)coc12)c1c(Cl)ccc(F)c1Cl [Example 238, (4-{6-Amino-7-[(R)-1-(2,6-dichloro-3-fluorophenyl)ethoxy]-furo[3,2-c]pyridin-3-yl}-3,6-dihydro-2H-pyridin-1-yl)-(S)-piperidin-2-ylmethanone]
pIC50 (RON (human)): > 6.30 | pIC50 (MET (human)): > 6.30

C[C@@H](Oc1c(N)ncc2c(-c3ccc(CN4CCOCC4)cc3)coc12)c1c(Cl)ccc(F)c1Cl [Example 85, 7-[(R)-1-(2,6-Dichloro-3-fluorophenyl)ethoxy]-3-(4-morpholin-4-ylmethylphenyl)furo[3,2-c]pyridin-6-ylamine]
pIC50 (RON (human)): 5.30 to 6.30 | pIC50 (MET (human)): 5.30 to 6.30

CC(Oc1c(N)ncc2c(-c3cnn(C4CCNCC4)c3)coc12)c1cccc(Cl)c1 (stereo not shown) [Example 385, 7-[1-(3-Chlorophenyl)ethoxy]-3-(1-piperidin-4-yl-1H-pyrazol-4-yl)furo[3,2-c]pyridin-6-ylamine]
pIC50 (RON (human)): 5.30 to 6.30 | pIC50 (MET (human)): > 6.30

CC(Cc1c(F)cccc1C(F)(F)F)Oc1c(N)ncc2c(-c3cnn(C4CCNCC4)c3)coc12 (stereo not shown) [Example 441, 7-[2-(2-Fluoro-6-trifluoromethylphenyl)-1-methylethoxy]-3-(1-piperidin-4-yl-1H-pyrazol-4-yl)furo[3,2-c]pyridin-6-ylamine]
pIC50 (RON (human)): 5.30 to 6.30 | pIC50 (MET (human)): > 6.30

C[C@@H](Oc1c(N)ncc2c(-c3ccc(N4CCN(C(N)=O)CC4)nc3)coc12)c1c(Cl)ccc(F)c1Cl [Example 319, 4-(5-{6-Amino-7-[(R)-1-(2,6-dichloro-3-fluorophenyl)ethoxy]furo[3,2-c]pyridin-3-yl}pyridin-2-yl)piperazine-1-carboxamide]
pIC50 (RON (human)): 5.30 to 6.30 | pIC50 (MET (human)): 5.30 to 6.30

C[C@@H](Oc1c(N)ncc2c(-c3ccc(S(C)(=O)=O)cc3)coc12)c1c(Cl)ccc(F)c1Cl [Example 62, 7-[(R)-1-(2,6-Dichloro-3-fluorophenyl)ethoxy]-3-(4-methane-sulfonylphenyl)furo[3,2-c]pyridin-6-ylamine]
pIC50 (RON (human)): 5.30 to 6.30 | pIC50 (MET (human)): 5.30 to 6.30

C[C@@H](Oc1c(N)ncc2c(-c3cnn(C4CCNCC4)c3)coc12)c1ccccc1Cl [Example 335, 7-[(R)-1-(2-Chlorophenyl)ethoxy]-3-(1-piperidin-4-yl-1H-pyrazol-4-yl)-furo[3,2-c]pyridin-6-ylamine]
pIC50 (RON (human)): 5.30 to 6.30 | pIC50 (MET (human)): > 6.30

CC(=O)N1CCN(c2ccc(-c3coc4c(O[C@H](C)c5c(Cl)ccc(F)c5Cl)c(N)ncc34)cn2)CC1 [Example 281, 1-[4-(5-{6-Amino-7-[(R)-1-(2,6-dichloro-3-fluorophenyl)ethoxy]furo[3,2-c]pyridin-3-yl}-pyridin-2-yl)-piperazin-1-yl]ethanone]
pIC50 (RON (human)): 5.30 to 6.30 | pIC50 (MET (human)): > 6.30

C[C@@H](Oc1c(N)ncc2c(C3=CCN(CC(N)=O)CC3)coc12)c1c(Cl)ccc(F)c1Cl [Example 202, 2-(4-{6-Amino-7-[(R)-1-(2,6-dichloro-3-fluorophenyl)ethoxy]-furo[3,2-c]pyridin-3-yl}-3,6-dihydro-2H-pyridin-1-yl)-acetamide]
pIC50 (RON (human)): 5.30 to 6.30 | pIC50 (MET (human)): > 6.30

C[C@@H](Oc1c(N)ncc2c(-c3ccnc(N4CCN(C)CC4)c3)coc12)c1c(Cl)ccc(F)c1Cl [Example 89, 7-[(R)-1-(2,6-Dichloro-3-fluorophenyl)ethoxy]-3-[2-(4-methylpiperazin-1-yl)pyridin-4-yl]-furo[3,2-c]pyridin-6-ylamine]
pIC50 (RON (human)): > 6.30 | pIC50 (MET (human)): > 6.30

CC(Cc1c(Cl)cccc1Cl)Oc1c(N)ncc2c(-c3cnn(C4CCNCC4)c3)coc12 (stereo not shown) [Example 417, 7-[2-(2,6-Dichlorophenyl)-1-methylethoxy]-3-(1-piperidin-4-yl-1H-pyrazol-4-yl)furo[3,2-c]pyridin-6-ylamine]
pIC50 (RON (human)): 5.30 to 6.30 | pIC50 (MET (human)): 5.30 to 6.30

C[C@@H](Cc1ccccc1)Oc1c(N)ncc2c(-c3cnn(C4CCNCC4)c3)coc12 [Example 414, 7-((S)-1-Methyl-2-phenylethoxy)-3-(1-piperidin-4-yl-1H-pyrazol-4-yl)furo[3,2-c]pyridin-6-ylamine]
pIC50 (RON (human)): 5.30 to 6.30 | pIC50 (MET (human)): > 6.30

CCNC(=O)c1cc(-c2coc3c(O[C@H](C)c4c(Cl)ccc(F)c4Cl)c(N)ncc23)cs1 [Example 314, 4-{6-Amino-7-[(R)-1-(2,6-dichloro-3-fluorophenyl)ethoxy]furo[3,2-c]pyridin-3-yl}-thiophene-2-carboxylic acid Ethylamide]
pIC50 (RON (human)): 5.30 to 6.30 | pIC50 (MET (human)): 5.30 to 6.30

COc1cc(Cl)cc(Cl)c1C(C)Oc1c(N)ncc2c(-c3cnn(C4CCNCC4)c3)coc12 (stereo not shown) [Example 360, 7-[1-(2,4-Dichloro-6-methoxyphenyl)ethoxy]-3-(1-piperidin-4-yl-1H-pyrazol-4-yl)furo[3,2-c]pyridin-6-ylamine]
pIC50 (RON (human)): 5.30 to 6.30 | pIC50 (MET (human)): > 6.30

COCCNC(=O)c1coc2c(O[C@H](C)c3c(Cl)ccc(F)c3Cl)c(N)ncc12 [Example 192, 6-Amino-7-[(R)-1-(2,6-dichloro-3-fluorophenyl)ethoxy]furo[3,2-c]pyridine-3-carboxylic acid (3-methoxyethyl)amide]
pIC50 (RON (human)): 5.30 to 6.30 | pIC50 (MET (human)): > 6.30

CC(Oc1c(N)ncc2c(-c3cnn(C4CCNCC4)c3)coc12)c1cc(F)cc(Br)c1 (stereo not shown) [Example 434, 7-[1-(3-Bromo-5-fluorophenyl)ethoxy]-3-(1-piperidin-4-yl-1H-pyrazol-4-yl)furo[3,2-c]pyridin-6-ylamine]
pIC50 (RON (human)): > 6.30 | pIC50 (MET (human)): > 6.30

Nc1ncc2c(-c3cnn(C4CCNCC4)c3)coc2c1OC/C=C/c1c(Cl)ccc(F)c1Cl [Example 356, 7-[(E)-3-(2,6-Dichloro-3-fluorophenyl)allyloxy]-3-(1-piperidin-4-yl-1H-pyrazol-4-yl)furo[3,2-c]pyridin-6-ylamine]
pIC50 (RON (human)): > 6.30 | pIC50 (MET (human)): > 6.30

C[C@@H](Oc1c(N)ncc2c(-c3ccc(C(=O)N4CCCN(C)CC4)cc3)coc12)c1c(Cl)ccc(F)c1Cl [Example 293, (4-{6-Amino-7-[(R)-1-(2,6-dichloro-3-fluorophenyl)ethoxy]furo[3,2-c]pyridin-3-yl}phenyl)-(4-methyl-[1,4]diazepan-1-yl)methanone]
pIC50 (RON (human)): > 6.30 | pIC50 (MET (human)): > 6.30

C[C@@H](Oc1c(N)ncc2c(-c3ccc(CN(C)C)s3)coc12)c1c(Cl)ccc(F)c1Cl [Example 214, 7-[(R)-1-(2,6-Dichloro-3-fluorophenyl)ethoxy]-3-(5-dimethyl-aminomethylthiophen-2-yl)-furo[3,2-c]pyridin-6-ylamine]
pIC50 (RON (human)): > 6.30 | pIC50 (MET (human)): > 6.30

C[C@@H](Oc1c(N)ncc2c(-c3ccnc4ccccc34)coc12)c1c(Cl)ccc(F)c1Cl [Example 92, 7-[(R)-1-(2,6-Dichloro-3-fluorophenyl)ethoxy]-3-quinolin-4-ylfuro[3,2-c]pyridin-6-ylamine]
pIC50 (RON (human)): 4.70 to 5.30 | pIC50 (MET (human)): 5.30 to 6.30

COCCCNC(=O)c1ccc(-c2coc3c(O[C@H](C)c4c(Cl)ccc(F)c4Cl)c(N)ncc23)cc1 [Example 286, 4-{6-Amino-7-[(R)-1-(2,6-dichloro-3-fluorophenyl)ethoxy]furo[3,2-c]pyridin-3-yl}-N-(3-methoxypropyl)-benzamide]
pIC50 (RON (human)): 5.30 to 6.30 | pIC50 (MET (human)): 5.30 to 6.30

Nc1ncc2c(-c3cnn(C4CCNCC4)c3)coc2c1OC1CCCc2c(F)cccc21 (stereo not shown) [Example 390, 7-(5-Fluoro-1,2,3,4-tetrahydronaphthalen-1-yloxy)-3-(1-piperidin-4-yl-1H-pyrazol-4-yl)furo[3,2-c]pyridin-6-ylamine]
pIC50 (RON (human)): > 6.30 | pIC50 (MET (human)): > 6.30

C[C@@H](Oc1c(N)ncc2c(C3=CCN(C(=O)OC4CCCC4)CC3)coc12)c1c(Cl)ccc(F)c1Cl [Example 54, 4-{6-Amino-7-[(R)-1-(2,6-dichloro-3-fluorophenyl)-ethoxy]-furo[3,2-c]pyridin-3-yl}-3,6-dihydro-2H-pyridine-1-carboxylic acid cyclopentyl ester]
pIC50 (RON (human)): 5.30 to 6.30 | pIC50 (MET (human)): 5.30 to 6.30

CC(/C=C/c1c(Cl)ccc(F)c1Cl)Oc1c(N)ncc2c(-c3cnn(C4CCNCC4)c3)coc12 (stereo not shown) [Example 373, 7-[(E)-3-(2,6-Dichloro-3-fluorophenyl)-1-methylallyloxy]-3-(1-piperidin-4-yl-1H-pyrazol-4-yl)furo[3,2-c]pyridin-6-ylamine]
pIC50 (RON (human)): 5.30 to 6.30 | pIC50 (MET (human)): > 6.30

Source: patent US8022206B2 (OSI Pharmaceuticals, LLC, priority 2008, dated 2011)
